Data reported in patent publication US20090149531A1, “CHEMICAL COMPOSITION DERIVED FROM P-HYDROXYPHENYL PROPIONIC ACID FOR THE TREATMENT OF PSORIASIS” (APOTEKNOS PARA LA PIEL, S.L., priority 2007, published 2009).

Assays:
[1] = Assessment of erythema in the hairless rat study; type: in vivo, hairless rats; conditions: Calcitriol 0.01% topical once a day, 0=absence, 1=low grade, 3=high grade
Experimental: (§1) To do this Calcitriol was used as the reference product at 0.01% and compound A was used as the test product at 1% and 0.1% (100 μg/cm^2 and 10 μg/cm^2, respectively). A Control Group was included, administered only with the vehicle (absolute ethanol).
(§2) The treatments were administered topically, once a day for 10 days (100 μg/side/animal). The animals were weighed on a daily basis throughout the study and the grade of erythema was evaluated (0=Absence of erythema, 1=Low grade erythema, 3=High grade erythema). On the last day of the study, day 11, the amount of corneous material extracted from the epidermis of the animals was evaluated.

[2] = Signs of toxicity and deaths in the hairless rat study; type: in vivo
Experimental: A Control Group was included, administered only with the vehicle (absolute ethanol).
as §2

[3] = Body weight in the hairless rat study; type: in vivo, hairless rats; conditions: Calcitriol 0.01% topical once a day
Experimental: as §1, §2

[4] = system: cell hyperproliferation in hairless rats; assay: Model of desquamation in hairless rats: corneous material extracted; type: in vivo
Experimental: The activity of compound A on cell hyperproliferation in hairless rats was evaluated using the model of desquamation in hairless rats described in the publication: Bräutigam, M., Hübner, H., Rach, P., Thieroff-Ekerdi, R. “Effects of Calcipotriol (MC 903) and Calcitriol after Topical Application on the Skin of Hairless Rats”, Skin Pharmacol 1992; 5:87-92.
as §1
The animals were randomly distributed into the following experimental groups:
as §2

[5] = Calcitriol 0.01% (1 μg/cm^2) topical once a day for 10 days, day 11

For `C=C1/C(=C\C=C2/CCC[C@]3(C)[C@@H]([C@H](C)CCCC(C)(C)O)CC[C@@H]23)C[C@@H](O)C[C@@H]1O` [Calcitriol, 1-alpha,25-dihydroxycholecalciferol, reference compound], the “Assessment of erythema (mean grade)” value ([1]; Baseline) was 0.0 ± 0.00, the “Assessment of erythema (mean grade)” value ([1]; Day 2) was 0.0 ± 0.00 and the “Assessment of erythema (mean grade)” value ([1]; Day 3) was 0.0 ± 0.00. For the same molecule, the “Assessment of erythema (mean grade)” value ([1]; Day 4) was 0.0 ± 0.00, the “Assessment of erythema (mean grade)” value ([1]; Day 5) was 0.0 ± 0.00 and the “Assessment of erythema (mean grade)” value ([1]; Day 6) was 0.0 ± 0.00. The “Assessment of erythema (mean grade)” value ([1]; Day 7) was 0.0 ± 0.00, the “Assessment of erythema (mean grade)” value ([1]; Day 8) was 1.0 ± 0.00 and the “Assessment of erythema (mean grade)” value ([1]; Day 9) was 1.5 ± 0.22. For the same molecule, the “Assessment of erythema (mean grade)” value ([1]; Day 10) was 2.0 ± 0.20, the “Assessment of erythema (mean grade)” value ([1]; Day 11) was 2.0 ± 0.00 and the “animals that died before the end of the study” value ([2]; Calcitriol 0.01% group (n 6), repeated administration) was “Three”. The signs of toxicity ([2]; rat, in vivo) was “clear signs of toxicity were detected”, the Body weight ([3]; Baseline) was 0.0 ± 0.00 g and the Body weight ([3]; Day 2) was 0.0 ± 0.00 g. It also gave a Body weight ([3]; Day 3) of 0.0 ± 0.00 g, a Body weight ([3]; Day 4) of 0.0 ± 0.00 g and a Body weight ([3]; Day 5) of 0.0 ± 0.00 g. For the same molecule, the Body weight ([3]; Day 6) was 0.0 ± 0.00 g, the Body weight ([3]; Day 7) was 0.0 ± 0.00 g and the Body weight ([3]; Day 8) was 1.0 ± 0.00 g. For the same molecule, the Body weight ([3]; Day 9) was 1.5 ± 0.22 g, the Body weight ([3]; Day 10) was 2.0 ± 0.20 g and the Body weight ([3]; Day 11) was 2.0 ± 0.00 g. The “amount of corneous material extracted, total sum of the right and left flanks, Portal No, 1” value [4, 5] was 13.5 ± 4.89 mg, the “amount of corneous material extracted, total sum of the right and left flanks, Portal No, 2” value [4, 5] was 7.7 ± 1.43 mg and the “amount of corneous material extracted, total sum of the right and left flanks, Portal No, 3” value [4, 5] was 5.9 ± 0.94 mg. For the same molecule, the “amount of corneous material extracted, total sum of the right and left flanks, Portal No, 4” value [4, 5] was 4.5 ± 0.60 mg, the “amount of corneous material extracted, total sum of the right and left flanks, Portal No, 5” value [4, 5] was 3.7 ± 0.35 mg and the “amount of corneous material extracted, total sum of the right and left flanks, Portal No, 6” value [4, 5] was 21.7 ± 2.07 mg. For the same molecule, the “amount of corneous material extracted compared with the other experimental groups” value ([4]; Calcitriol 0.01%, topical 0.2 ml/animal) was “clearly greater than that extracted in the other experimental groups”.
